The test system of data set [1] is OPN expression in Swiss 3T3 fibroblasts exposed to macrophage CM. The data set is described as follows: Macrophage-CM induction of OPN in fibroblasts with inhibitors (Western blot). Format: cell-based. The settings on record: co-treatment; Gleevec 2-20 μM, PDGF-Rβ nAb 2 μg/ml, wortmannin 100 nM. The method, then: (§1) Protein samples (20 μg; collected in T-PER® Reagent; PIERCE Biotechnology) were separated on Tris-Glycine Gels (Invitrogen), transferred to PVDF, and blotted according to standard protocols (antibody details are provided above).
(§2) Swiss 3T3, J774.1 macrophages, and RBL mast cells were cultured in DMEM+10% fetal calf serum. Primary neutrophils were harvested by peritoneal lavage 4 h post-thioglycollate-induced peritonitis, and primary macrophages were derived from mouse bone marrow and activated with LPS (500 ng/ml).

The test system of data set [2] is pulmonary and dermal fibrosis. The settings on record: Distler et al. 2007; Aono et al. 2005; cited from earlier work.
Data set [3] relates to OPN expression in Swiss 3T3 fibroblasts. In words: Induction of OPN expression in fibroblasts by growth factors/cytokines (Western blot). Format: cell-based. The settings on record: for ability to upregulate OPN expression in Swiss 3T3s: 8 h, PDGF-BB 20, EGF 100, TGFβ1 10, TGFβ3 10, IL-6 50, TNFα 10 ng/ml. The method, then: as §1, §2
A further data set concerns Mouse OPN mRNA. The data set is described as follows: AS ODN cleavage of OPN mRNA in vitro (RNase H). It is filed as biochemical. The settings on record: ODN final concentration 2 μM, 20 min at 37° C., compared among the AS ODNs. The method, then: Dz cleavage of OPN mRNA in vitro: Mouse OPN mRNA was transcribed from the IMAGE clone (GenBank, BC057858; (Geneservice Ltd), and resulting RNA was purified with RNeasy MinElute Cleanup Kit (Qiagen). RNA (0.3 μg/5 μl) was incubated in the cleavage buffer (10 mM MgCl2, 5 mM Tris (pH 7.5), 150 mM NaCl) for 5 min at 37° C., as was 5 μl of Dzs (40 μM; MWG Biotech). These were then combined and incubated for 1 h. RNA products were separated on 2% formaldehyde-agarose gel and stained with SYBR Gold nucleic acid gel stain (Invitrogen) to determine cleaving efficiency (FIG. 6 A).
AS ODN cleavage in vitro: To evaluate the cleaving efficiency of the AS ODNs, transcribed RNA (0.3 μg) was incubated with control or OPN AS ODNs (final concentration of 2 μM; MWG Biotech), RNase H (Invitrogen. Corp.), and RNasin (to inhibit non-specific RNA degradation; Promega) in a final volume 10 μl of cleavage buffer, and incubated for 20 min at 37° C. RNA products were separated on 2% formaldehyde-agarose gel and stained with SYBR Gold nucleic acid gel stain (Invitrogen Corp.) to determine cleaving efficiency (FIG. 6 B).

For a further data set, the system named is chronic ulcers. The settings on record: cited from earlier work.

Counter-ions that a name gives are not always drawn.

As for `Cc1ccc(NC(=O)c2ccc(CN3CCN(C)CC3)cc2)cc1Nc1nccc(-c2cccnc2)n1` [Gleevec, imatinib mesylate], the “OPN expression during fibroblast exposure to macrophage CM” value in data set [1] was “significantly reduced”. Also, the “pulmonary and dermal fibrosis” value in data set [2] is “reduces pulmonary and dermal fibrosis”.

Take “EGF: growth factor, R&D Systems (NSDSECPLSHDGYCLHDGVCMYIEALDKYACNCVVGYIGERCQYRDLKWWELR; Epidermal growth factor; UniProt P01133 971-1023, looked up)”: the “ability to upregulate OPN expression in Swiss 3T3s” value (“ability” below) in data set [3] is “not”.

Turning to IL-6: cytokine, BioSource, the “ability” value in data set [3] is listed as “not”.

Regarding “OPN AS ODN (943): osteopontin antisense oligodeoxynucleotide actatcgatcacatccg (SEQ.ID.NO: 164) (antisense ACTATCGATCACATCCG; DNA, backbone not given here)”, the “effectiveness at cleaving OPN mRNA” value in the data set with Mouse OPN mRNA is “most effective”.

With PDGF-BB: growth factor, R&D Systems, the “granulation tissue and scarring” value with chronic ulcers (in vivo) is “increased granulation tissue and scarring”. In addition, the “healing of chronic ulcers” value in the data set with chronic ulcers (topical application to wounds (Chan et al. 2006)) is given as “accelerate the healing”. Moreover, in data set [3], the “ability” value is given as “significantly upregulate”. Also, the “time of peak OPN levels after initial exposure” value in data set [3] (Swiss 3T3 fibroblasts, 20 ng/ml PDGF-BB) is reported as “about 8 h”. Besides, the “minimum window of exposure required for OPN expression” value in data set [3] (Swiss 3T3 fibroblasts, 20 ng/ml PDGF-BB, analysed at 8 h) was at least 2 h.

Take “TGFβ1: growth factor/cytokine, BioVision”: the “ability” value in data set [3] was “not”.
